According to patent publication US20140148422A1, “TREATMENT OF GLUCOSE INTOLERANCE” (AtheroNova Operations, Inc., priority 2009, published 2014):
“And” between values parts separate entries of the source, which are not always exact repeats. Identical values can stand only once. “Also recorded” adds a separate entry of the source. Like-named read-outs stand apart in the source and are kept apart here.

What was measured:
[1] = system: Fat Metabolism in Mice; experiment: Determination of ketonuria in mice (urine ketone bodies, Ketostix strips); format: in vivo; parameters: key to Ketone level: —: No detectable levels of Ketone in the urine; Trace amount of Ketone (6 mg/dL) in the urine; Small amount of Ketone (15 mg/dL) in the urine; details: week 23; for Ketone level: urine of individual mice; for Average Ketone levels: urine
Protocol: In a preliminary in vivo experiment, four groups of mice (each group including three or four mice of same genetic background) were tested for levels of ketone bodies in their urine after consumption of the high fat and/or high cholesterol rodent chow diet supplemented with or without at least on biocompatible emulsifier. In this study, all mice in all groups (all being eight weeks old when this study commenced) were fed with high fat/high cholesterol chow diet (Catalog No. 12079B from Research Diets) for eight weeks. Starting at week 9, the diet of all mice was switched to low fat chow (AIN-76A Rodent Diet from Research Diets). For 15 weeks thereafter, the control mice of group A were fed with pure low fat chow while the mice in treated groups, B, C and D, were fed with low fat chow supplemented with at least one biocompatible emulsifier as follow: Group B mice were fed with low fat chow supplemented with 0.5% Hyodeoxycholic acid (HDCA) and 1.25% D-Limonene (DLM). Group C mice were fed with low fat chow supplemented with 5% DLM. Group D mice were fed with low fat chow supplemented with 1.25% HDCA.
At week 23 of the experiment, urine samples from each mice were taken and analyzed for ketone body levels using Ketostix® stips.

[2] = Escape of oral HDCA from the entero-hepatic circulation into the systemic circulation; format: in vivo, human; details: 750 mg/day dose, average adult person weighing 70 kg, assuming about 70% enters systemic circulation
Source text: (§1) It is know in the art that when hyodeoxycholic acid (a hydrophilic bile acid) is taken orally, it is absorbed through the gut and reaches the liver, but then a large fraction of it, up to 70%, escapes the entero-hepatic circulation, and enters the systemic circulation. See Salvioli et al., European Journal of Clinical Investigation, Vol. 18(1), pp. 22-28 (February 1988). Therefore, the induction of ketonuria is an indication that HDCA upon becoming bioavailable the systemic circulation is able to induce dissolution of the body fat.
(§2) Considering that about 70% of HDCA escapes the entero-hepatic pathway and enters into the systemic blood circulation, the 750 mg/day dose of HDCA averages to concentration of about 270 μM in the blood of an average adult person weighing 70 kg, as compared to normal levels of bile salts in the blood which are less than 10 μM. Some embodiments described herein are effective to mimic the high levels of bile salts observed as safe in Example 2, and in so doing are effective to result in the treatment of obesity.

[3] = system: Fat Metabolism In Human; experiment: Ketonuria in an individual taking oral HDCA (weekly Ketostix testing); format: in vivo; details: 250 mg orally three times a day (750 mg/day), 10 weeks, no caloric restriction, one individual
Source text: as §1, §2
An in vivo experiment was performed to assess the effectiveness of HDCA in causing fat catabolism and treating obesity in human. In this experiment, an overweight individual otherwise healthy took 250 mg of HDCA three times a day (750 mg/day) for a period of 10 weeks without caloric restriction.

[4] = wild-type mice provided dietary HDCA; cited from earlier work
[5] = system: C57BL/6 LDL r-KO knockout mice; details: HDCA fed, relative to mice not provided HDCA; cited from earlier work
[6] = taken orally, cited from earlier work
[7] = drug compared with placebo; cited from earlier work
[8] = low fat chow + 5% DLM (Group C)
[9] = low fat chow + 1.25% HDCA (Group D)

Question: Which Ketone level [1, 8] does the source give for `C=C(C)[C@H]1CC=C(C)CC1` [DLM, D-Limonene] here?
Answer: — and T (Trace amount of Ketone (6 mg/dL) in the urine) (2×) and S (Small amount of Ketone (15 mg/dL) in the urine)

Question: What about the “Average Ketone levels” value [1, 8] of the same compound?
Answer: 42

Question: Which “Average concentration in the blood” value [2] does the source give for `C[C@H](CCC(=O)O)[C@H]1CC[C@H]2[C@@H]3C[C@H](O)[C@@H]4C[C@H](O)CC[C@]4(C)[C@H]3CC[C@]12C` [HDCA, hyodeoxycholic acid] here?
Answer: about 270 μM

Question: And the “Ketonuria / ketotic state” value [3]?
Answer: mild ketonuria; also recorded: mild ketotic state

Question: What about the Plasma levels [4] of the same compound?
Answer: up to 50 μM

Question: And the “Rate of formation of atherosclerotic plaque” value [5]?
Answer: reduced rate of formation of atherosclerotic plaque

Question: And the Ketone level [1, 9]?
Answer: — and T (Trace amount of Ketone (6 mg/dL) in the urine) and S (Small amount of Ketone (15 mg/dL) in the urine)

Question: What about the “Average Ketone levels” value [1, 9] of the same compound?
Answer: 100

Question: And the “Fraction escaping the entero-hepatic circulation and entering the systemic circulation” value [6]?
Answer: about 70%

Question: What about the “Fraction escaping the entero-hepatic circulation and entering the systemic circulation” value ([6]; listed as hyodeoxycholic acid) of the same compound?
Answer: up to 70%

Question: With `CCN[C@@H](C)Cc1cccc(C(F)(F)F)c1` [dexfenfluramine] as the compound, how does the Weight loss [7] read?
Answer: about 5 % of body weight

Question: With `CCCCCCCCCCC[C@@H](C[C@@H]1OC(=O)[C@H]1CCCCCC)OC(=O)[C@H](CC(C)C)NC=O` [orlistat] as the compound, how does the Weight loss [7] read?
Answer: about 5 % of body weight

Question: With `CC(C)(N)Cc1ccccc1` [phentermine] as the compound, how does the Weight loss [7] read?
Answer: about 5 % of body weight

Question: For `CC(C)CC(N(C)C)C1(c2ccc(Cl)cc2)CCC1` (centres unmarked) [sibutramine], which Weight loss [7] is on record?
Answer: about 5 % of body weight
